Experimental data: PubChem BioAssay AID1918940 (Molecular Pharmacology Branch, DTP, NCI, 2023)

Test system: NCI-H211 complex spheroid viability
Experiment: Anticancer human tumor NCI-H211 cell line growth inhibition [LSD1];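 also: luminescent viability read after seven days of drug exposure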;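 as to viability, T/C: 100% = DMSO vehicle control viability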
Conditions: for IC50: curve of first compound; for viability, T/C: stronger effect = lower value
Excerpt: Multicellular complex tumor spheroid response to LSD1 Inhibitor Iadademstat in combination with a variety of drugs and investigational agents in selected tumor cell lines
The current study was undertaken to assess response to LSD1 inhibitors in combination with standard-of-care drugs and investigational agents in solid tumor complex spheroid models as well as in the K-562 leukemia. Complex spheroids include a stromal component modeled by human endothelial cells (HUVEC) and fibroblasts modeled by human mesenchymal stem cells (MSCs). The concentration ranges selected for each drug and investigational agent were based upon clinically achievable concentrations if the clinical Cmax of the agent was known.
Compounds. The drugs and investigational agents used in this study are listed on Table 1. All of the agents used, including staurosporine (NSC755774) and gemcitabine (NSC613327), were obtained from the Developmental Therapeutics Program, NCI. FDA-approved anticancer drugs are available from the NCI at http://dtp.nci.nih.gov/branches/dscb/oncology_drugset_explanation.html. Drugs and investigational agents were >95% pure by proton nuclear magnetic resonance (NMR) and liquid chromatography/mass spectrometry (LC/MS). Stock solutions were prepared at 400x in DMSO, stored at -70 degrees C, and diluted in fresh medium prior to their use. The final concentration of DMSO in cell culture wells never exceeded 0.25% (v/v). The FDA-approved anticancer drug set is available from the Developmental Therapeutics Program at https://dtp.cancer.gov/organization/dscb/obtaining/available_plates.htm. All drugs and investigational agents were tested over a range starting from a high concentration at or near the clinical Cmax and decreasing in half-log increments. If the clinical Cmax for an agent had not been determined, the highest concentration tested was 10 microM.
Cell Lines. The patient-derived cancer cell (PDC) lines: 292921-168-R-J2-PDC, K24384-001-R-PDC, and 521955-158-R2-J5-PDC pancreatic carcinomas, 556581-035-R-J1 ovarian carcinoma, 324938-238-R-J1-PDC, 855422-203-R-J1-PDC and 883617-216-R-J1-PDC urothelial bladder carcinomas, 743489-274-T-PDC renal cell carcinoma, 138582-R-J1 Merkel cell tumor, K60290-347-R-J1 and K57222-313-R-J1-PDC glioblastomas, 653999-131-R-J2-PDC, LG0703-F948-PDC, and 349418-098-R-PDC non-small cell lung carcinomas, 885512-296-R-J2-PDC, 171881-019-R-J1-PDC breast carcinomas and 186277-243-T-J2-PDC and 233499-124-R-J2-PDC colon carcinomas were obtained from the NCI Patient-Derived Models Repository (PDMR, https://pdmr.cancer.gov). The established cell lines NCI/ADR-RES (RRID:CVCL_14520 and OVCAR-5 (RRID:CVCL_1628) ovarian carcinomas, 786-O (RRID:CVCL_1051) and A498 (RRID:CVCL_A498) renal cell carcinoma, NCI-H211 (ATCC, cat. CRL-5824; RRID:CVCL_1529), NCI-H196 (ATCC, cat. CRL-5823, RRID:CVCL_1509), SW 1271 (ATCC, cat. CRL-2177, RRID:CVCL_1716) and NCI-H1876 (ATCC, cat. CRL-5902, RRID:CVCL_1503) small cell lung carcinomas, MDA-MB-231 (RRID:CVCL_0062) and MDA-MB-468 (RRID:CVCL_0419)breast carcinomas (10-12). Pooled donor human umbilical vein endothelial cells (HUVEC, Lonza, cat. CC-2519) and human mesenchymal stem cells (hMSC, Lonza, cat. PT-2501) were purchased from Lonza (Walkersville, MD).
Cell Culture. All cells were maintained in an incubator at 37 degrees C and 5% CO2 with 95% humidity. The PDC lines were cultured according to standard operating procedures established by the NCI PDMR (https://pdmr.cancer.gov). Briefly all PDCs were thawed and cultured in Matrigel-coated flasks prepared with a working solution of 1X Ham's F-12 nutrient mix, without supplementation (Invitrogen, Waltham, MA, cat. 11765054), 100 U/mL penicillin-streptomycin (Invitrogen, cat. 15140122), and 2.5% Matrigel (Corning Inc., Corning, NY, cat. 354248) for the first three passages. […]

[1] = second compound 0.1 µM, first compound 0.00316 µM
[2] = second compound 0.1 µM, first compound 0.01 µM
[3] = second compound 0.1 µM, first compound 0.0316 µM
[4] = second compound 0.1 µM, first compound 0.1 µM
[5] = second compound 0.316 µM, first compound 0.00316 µM
[6] = second compound 0.316 µM, first compound 0.01 µM
[7] = second compound 0.316 µM, first compound 0.0316 µM
[8] = second compound 0.316 µM, first compound 0.1 µM
[9] = second compound 1 µM, first compound 0.00316 µM
[10] = second compound 1 µM, first compound 0.01 µM
[11] = second compound 1 µM, first compound 0.0316 µM
[12] = second compound 1 µM, first compound 0.1 µM
[13] = second compound 3.16 µM, first compound 0.00316 µM
[14] = second compound 3.16 µM, first compound 0.01 µM
[15] = second compound 3.16 µM, first compound 0.0316 µM
[16] = second compound 3.16 µM, first compound 0.1 µM
[17] = second compound 10 µM, first compound 0.00316 µM
[18] = second compound 10 µM, first compound 0.01 µM
[19] = second compound 10 µM, first compound 0.0316 µM
[20] = second compound 10 µM, first compound 0.1 µM

CC[C@@]1(O)C(=O)OCc2c1cc1n(c2=O)Cc2cc3c(CN(C)C)c(O)ccc3nc2-1 + NC1CC1c1ccc(-c2cccc(O)c2)cc1 gave an IC50 (second compound 0.1 µM) of 0.472 nM, an IC50 (second compound 0.316 µM) of 0.4 nM and an IC50 (second compound 1 µM) of 0.333 nM. The IC50 (second compound 3.16 µM) was < 0.316 nM, the IC50 (second compound 10 µM) was < 0.316 nM and the viability, T/C (second compound 0.1 µM, first compound 0.000316 µM) was 69.9%. The viability, T/C (second compound 0.1 µM, first compound 0.001 µM) was 12.8%, the viability, T/C [1] was 4.7% and the viability, T/C [2] was 4.95%. For the same molecule, the viability, T/C [3] was 3.81%, the viability, T/C [4] was 2.69% and the viability, T/C (second compound 0.316 µM, first compound 0.000316 µM) was 60%. It also gave a viability, T/C (second compound 0.316 µM, first compound 0.001 µM) of 12%, a viability, T/C [5] of 6.18% and a viability, T/C [6] of 4.37%. For the same molecule, the viability, T/C [7] was 4.53%, the viability, T/C [8] was 2.25% and the viability, T/C (second compound 1 µM, first compound 0.000316 µM) was 51.9%. The viability, T/C (second compound 1 µM, first compound 0.001 µM) was 11.9%, the viability, T/C [9] was 5.4% and the viability, T/C [10] was 3.69%. It also gave a viability, T/C [11] of 4.13%, a viability, T/C [12] of 3.19% and a viability, T/C (second compound 3.16 µM, first compound 0.000316 µM) of 38.7%. For the same molecule, the viability, T/C (second compound 3.16 µM, first compound 0.001 µM) was 11.8%, the viability, T/C [13] was 5.33% and the viability, T/C [14] was 5.16%. For the same molecule, the viability, T/C [15] was 5.02%, the viability, T/C [16] was 2.67% and the viability, T/C (second compound 10 µM, first compound 0.000316 µM) was 44.5%. For the same molecule, the viability, T/C (second compound 10 µM, first compound 0.001 µM) was 15.3%, the viability, T/C [17] was 4.98% and the viability, T/C [18] was 5.88%. It also gave a viability, T/C [19] of 5.04% and a viability, T/C [20] of 2.36%.
For COc1cc(C2c3cc4c(cc3C(OC3OC5COC(C)OC5C(O)C3O)C3COC(=O)C23)OCO4)cc(OC)c1O (stereo not given) + NC1CC1c1ccc(-c2cccc(O)c2)cc1, the IC50 (second compound 0.1 µM) was < 9.49 nM, the IC50 (second compound 0.316 µM) was < 9.49 nM and the IC50 (second compound 1 µM) was < 9.49 nM. For the same molecule, the IC50 (second compound 3.16 µM) was < 9.49 nM, the IC50 (second compound 10 µM) was < 9.49 nM and the viability, T/C (second compound 0.1 µM, first compound 0.00949 µM) was 43.9%. For the same molecule, the viability, T/C (second compound 0.1 µM, first compound 0.03 µM) was 11.5%, the viability, T/C (second compound 0.1 µM, first compound 0.0949 µM) was 4.34% and the viability, T/C (second compound 0.1 µM, first compound 0.3 µM) was 5.07%. It also gave a viability, T/C (second compound 0.1 µM, first compound 0.949 µM) of 5.27%, a viability, T/C (second compound 0.1 µM, first compound 3 µM) of 4.24% and a viability, T/C (second compound 0.316 µM, first compound 0.00949 µM) of 38.7%. For the same molecule, the viability, T/C (second compound 0.316 µM, first compound 0.03 µM) was 11.5%, the viability, T/C (second compound 0.316 µM, first compound 0.0949 µM) was 4.54% and the viability, T/C (second compound 0.316 µM, first compound 0.3 µM) was 4.97%. The viability, T/C (second compound 0.316 µM, first compound 0.949 µM) was 4.77%, the viability, T/C (second compound 0.316 µM, first compound 3 µM) was 4.76% and the viability, T/C (second compound 1 µM, first compound 0.00949 µM) was 35.6%. It also gave a viability, T/C (second compound 1 µM, first compound 0.03 µM) of 10.3%, a viability, T/C (second compound 1 µM, first compound 0.0949 µM) of 6.12% and a viability, T/C (second compound 1 µM, first compound 0.3 µM) of 4.33%. For the same molecule, the viability, T/C (second compound 1 µM, first compound 0.949 µM) was 3.45%, the viability, T/C (second compound 1 µM, first compound 3 µM) was 4.65% and the viability, T/C (second compound 3.16 µM, first compound 0.00949 µM) was 29.2%. For the same molecule, the viability, T/C (second compound 3.16 µM, first compound 0.03 µM) was 7.68%, the viability, T/C (second compound 3.16 µM, first compound 0.0949 µM) was 5.57% and the viability, T/C (second compound 3.16 µM, first compound 0.3 µM) was 5.22%. The viability, T/C (second compound 3.16 µM, first compound 0.949 µM) was 5.76%, the viability, T/C (second compound 3.16 µM, first compound 3 µM) was 3.92% and the viability, T/C (second compound 10 µM, first compound 0.00949 µM) was 24.8%. It also gave a viability, T/C (second compound 10 µM, first compound 0.03 µM) of 9.09%, a viability, T/C (second compound 10 µM, first compound 0.0949 µM) of 5.19% and a viability, T/C (second compound 10 µM, first compound 0.3 µM) of 4.7%. The viability, T/C (second compound 10 µM, first compound 0.949 µM) was 5% and the viability, T/C (second compound 10 µM, first compound 3 µM) was 4.52%.
In the case of Nc1ncn(C2CC(O)C(CO)O2)c(=O)n1 (stereo not given) + NC1CC1c1ccc(-c2cccc(O)c2)cc1, the IC50 (second compound 0.1 µM) is reported as < 3.16 nM, the IC50 (second compound 0.316 µM) is reported as < 3.16 nM and the IC50 (second compound 1 µM) is reported as < 3.16 nM. For the same molecule, the IC50 (second compound 3.16 µM) was < 3.16 nM, the IC50 (second compound 10 µM) was < 3.16 nM and the viability, T/C [1] was 23.1%. The viability, T/C [2] was 11.9%, the viability, T/C [3] was 5.65% and the viability, T/C [4] was 3.94%. For the same molecule, the viability, T/C (second compound 0.1 µM, first compound 0.316 µM) was 3.2%, the viability, T/C (second compound 0.1 µM, first compound 1 µM) was 4.03% and the viability, T/C [5] was 18.7%. It also gave a viability, T/C [6] of 9.82%, a viability, T/C [7] of 6.26% and a viability, T/C [8] of 4.33%. The viability, T/C (second compound 0.316 µM, first compound 0.316 µM) was 3.7%, the viability, T/C (second compound 0.316 µM, first compound 1 µM) was 4.51% and the viability, T/C [9] was 17.9%. The viability, T/C [10] was 10.6%, the viability, T/C [11] was 5.51% and the viability, T/C [12] was 4%. The viability, T/C (second compound 1 µM, first compound 0.316 µM) was 4.16%, the viability, T/C (second compound 1 µM, first compound 1 µM) was 4.12% and the viability, T/C [13] was 24.6%. It also gave a viability, T/C [14] of 13.7%, a viability, T/C [15] of 6.51% and a viability, T/C [16] of 4.45%. The viability, T/C (second compound 3.16 µM, first compound 0.316 µM) was 3.03%, the viability, T/C (second compound 3.16 µM, first compound 1 µM) was 4.93% and the viability, T/C [17] was 22.7%. It also gave a viability, T/C [18] of 17.1%, a viability, T/C [19] of 9.21% and a viability, T/C [20] of 5.28%. For the same molecule, the viability, T/C (second compound 10 µM, first compound 0.316 µM) was 3.35% and the viability, T/C (second compound 10 µM, first compound 1 µM) was 3.79%.
